Assays:
[1] = test system: NCI-H23; test: Growth inhibition of human NCI-H23 cells at 10 uM incubated for 48 hrs by sulforhodamine B assay relative to control; assay type: functional; settings: NCI-H23, 48 h, values are per cent of control
[2] = test system: NCI-H460; test: Growth inhibition of human NCI-H460 cells at 10 uM incubated for 48 hrs by sulforhodamine B assay relative to control; assay type: functional; settings: NCI-H460, 48 h, values are per cent of control
[3] = test system: SN12C; test: Growth inhibition of human SN12C cells at 10 uM incubated for 48 hrs by sulforhodamine B assay relative to control; assay type: functional; settings: values are per cent of control
[4] = test system: RXF 393; test: Growth inhibition of human RXF393 cells at 10 uM incubated for 48 hrs by sulforhodamine B assay relative to control; assay type: functional; settings: RXF 393, 48 h, values are per cent of control
[5] = test system: CAKI-1; test: Growth inhibition of human Caki1 cells at 10 uM incubated for 48 hrs by sulforhodamine B assay relative to control; assay type: functional; settings: CAKI-1, 48 h, values are per cent of control
[6] = test system: A498; test: Growth inhibition of human A498 cells at 10 uM incubated for 48 hrs by sulforhodamine B assay relative to control; assay type: functional; settings: A498, 48 h, values are per cent of control
[7] = test system: 786-0; test: Growth inhibition of human 786-0 cells at 10 uM incubated for 48 hrs by sulforhodamine B assay relative to control; assay type: functional; settings: 786-0, 48 h, values are per cent of control
[8] = test system: NCI/ADR-RES; test: Growth inhibition of human NCI/ADR-RES cells at 10 uM incubated for 48 hrs by sulforhodamine B assay relative to control; assay type: functional; settings: values are per cent of control
[9] = test system: UO-31; test: Growth inhibition of human UO31 cells at 10 uM incubated for 48 hrs by sulforhodamine B assay relative to control; assay type: functional; settings: UO-31, 48 h, values are per cent of control
[10] = test system: PC-3; test: Growth inhibition of human PC3 cells at 10 uM incubated for 48 hrs by sulforhodamine B assay relative to control; assay type: functional; settings: PC-3, 48 h, values are per cent of control
[11] = test system: Hs-578T; test: Growth inhibition of human Hs 578T cells at 10 uM incubated for 48 hrs by sulforhodamine B assay relative to control; assay type: functional; settings: values are per cent of control
[12] = test system: BT-549; test: Growth inhibition of human BT549 cells at 10 uM incubated for 48 hrs by sulforhodamine B assay relative to control; assay type: functional; settings: BT-549, 48 h, values are per cent of control
[13] = test system: MDA-MB-468; test: Growth inhibition of human MDA-MB-468 cells at 10 uM incubated for 48 hrs by sulforhodamine B assay relative to control; assay type: functional; settings: MDA-MB-468, 48 h, values are per cent of control
[14] = test system: SR; test: Growth of human SR cells at 10 uM incubated for 48 hrs by sulforhodamine B assay relative to control
[15] = test system: KM12; test: Growth of human KM12 cells at 10 uM incubated for 48 hrs by sulforhodamine B assay relative to control; settings: KM12, 48 h
[16] = test system: EKVX; test: Growth of human EKVX cells at 10 uM incubated for 48 hrs by sulforhodamine B assay relative to control
[17] = test system: SNB-75; test: Growth of human SNB75 cells at 10 uM incubated for 48 hrs by sulforhodamine B assay relative to control; settings: SNB-75, 48 h
[18] = test system: SNB-19; test: Growth of human SNB19 cells at 10 uM incubated for 48 hrs by sulforhodamine B assay relative to control; settings: SNB-19, 48 h
[19] = test system: SF-295; test: Growth of human SF295 cells at 10 uM incubated for 48 hrs by sulforhodamine B assay relative to control; settings: SF-295, 48 h
[20] = test system: SW-620; test: Growth of human SW620 cells at 10 uM incubated for 48 hrs by sulforhodamine B assay relative to control; settings: SW-620, 48 h
[21] = test system: HT-29; test: Growth of human HT-29 cells at 10 uM incubated for 48 hrs by sulforhodamine B assay relative to control; settings: HT-29, 48 h
[22] = test system: HCT-15; test: Growth of human HCT15 cells at 10 uM incubated for 48 hrs by sulforhodamine B assay relative to control; settings: HCT-15, 48 h
[23] = test system: MOLT-4; test: Growth of human MOLT4 cells at 10 uM incubated for 48 hrs by sulforhodamine B assay relative to control; settings: MOLT-4, 48 h
[24] = test system: OVCAR-8; test: Growth of human OVCAR8 cells at 10 uM incubated for 48 hrs by sulforhodamine B assay relative to control; settings: OVCAR-8, 48 h
[25] = test system: OVCAR-3; test: Growth of human OVCAR3 cells at 10 uM incubated for 48 hrs by sulforhodamine B assay relative to control; settings: OVCAR-3, 48 h
[26] = test system: LOX IMVI; test: Growth of human LOXIMVI cells at 10 uM incubated for 48 hrs by sulforhodamine B assay relative to control
[27] = test system: HCC 2998; test: Growth of human HCC2998 cells at 10 uM incubated for 48 hrs by sulforhodamine B assay relative to control; settings: HCC 2998, 48 h
[28] = test system: COLO 205; test: Growth of human COLO205 cells at 10 uM incubated for 48 hrs by sulforhodamine B assay relative to control; settings: COLO 205, 48 h
[29] = test system: SK-MEL-2; test: Growth of human SK-MEL-2 cells at 10 uM incubated for 48 hrs by sulforhodamine B assay relative to control; settings: SK-MEL-2, 48 h
[30] = test system: NCI-H522; test: Growth of human NCI-H522 cells at 10 uM incubated for 48 hrs by sulforhodamine B assay relative to control; settings: NCI-H522, 48 h
[31] = test system: RPMI-8226; test: Growth of human RPMI8226 cells at 10 uM incubated for 48 hrs by sulforhodamine B assay relative to control; settings: RPMI-8226, 48 h
[32] = test system: SK-MEL-28; test: Growth of human SK-MEL-28 cells at 10 uM incubated for 48 hrs by sulforhodamine B assay relative to control; settings: SK-MEL-28, 48 h
[33] = test system: MDA-MB-435; test: Growth of human MDA-MB-435 cells at 10 uM incubated for 48 hrs by sulforhodamine B assay relative to control; settings: MDA-MB-435, 48 h

SMILES	growth, % of control at 10 µM [1] [%]	growth, % of control at 10 µM [2] [%]	growth, % of control at 10 µM [3] [%]	growth, % of control at 10 µM [4] [%]	growth, % of control at 10 µM [5] [%]	growth, % of control at 10 µM [6] [%]	growth, % of control at 10 µM [7] [%]	growth, % of control at 10 µM [8] [%]	growth, % of control at 10 µM [9] [%]	growth, % of control at 10 µM [10] [%]	growth, % of control at 10 µM [11] [%]	growth, % of control at 10 µM [12] [%]	growth, % of control at 10 µM [13] [%]	growth, % of control at 10 µM [14] [%]	growth, % of control at 10 µM [15] [%]	growth, % of control at 10 µM [16] [%]	growth, % of control at 10 µM [17] [%]	growth, % of control at 10 µM [18] [%]	growth, % of control at 10 µM [19] [%]	growth, % of control at 10 µM [20] [%]	other results
CC(C)(C)S/C(Nc1ccccc1)=C(\C#N)C(=O)N/N=C\c1ccco1	99	102	103	105	95.8	87	102	100	90.2	90.7	92.5	103	95.8	76.5	104	91.9	82.2	96.9	102	94.4	growth, % of control at 10 µM [21]: 87.2%; growth, % of control at 10 µM [22]: 99.2%; growth, % of control at 10 µM [23]: 88.6%; growth, % of control at 10 µM [24]: 94.9%; growth, % of control at 10 µM [25]: 106%; growth, % of control at 10 µM [26]: 99.6%; growth, % of control at 10 µM [27]: 107%; growth, % of control at 10 µM [28]: 102%; growth, % of control at 10 µM [29]: 103%; growth, % of control at 10 µM [30]: 71.1%; growth, % of control at 10 µM [31]: 106%; growth, % of control at 10 µM [32]: 106%; growth, % of control at 10 µM [33]: 101%
CCS/C(Nc1ccccc1)=C(\C#N)C(=O)Nc1ccc(OC)cc1	48.3	10.1	37.8	39.5	40.4	22.7	39.5	-0.67	50	47.9	27.4	40.5	-2.63	6.62	31	52.4	18.2	23.1	32.6	17.9	growth, % of control at 10 µM [21]: 6.46%; growth, % of control at 10 µM [22]: 16.9%; growth, % of control at 10 µM [23]: 10.1%; growth, % of control at 10 µM [24]: 31.2%; growth, % of control at 10 µM [25]: -12.1%; growth, % of control at 10 µM [26]: 36.6%; growth, % of control at 10 µM [27]: 55.2%; growth, % of control at 10 µM [28]: 17.5%; growth, % of control at 10 µM [29]: -0.34%; growth, % of control at 10 µM [30]: 0.63%; growth, % of control at 10 µM [31]: 25.2%; growth, % of control at 10 µM [32]: 58.9%; growth, % of control at 10 µM [33]: -47.9%
CC(C)(C)S/C(Nc1ccccc1)=C(\C#N)C(=O)N/N=C\c1ccc(Cl)cc1Cl	92.5	101	101	103	98.4	101	97.8	96	82.7	96.3	90.1	97	98.9	70	102	101	102	97.5	97.9	105	growth, % of control at 10 µM [21]: 92.6%; growth, % of control at 10 µM [22]: 102%; growth, % of control at 10 µM [23]: 86.2%; growth, % of control at 10 µM [24]: 97.3%; growth, % of control at 10 µM [25]: 98.6%; growth, % of control at 10 µM [26]: 101%; growth, % of control at 10 µM [27]: 98.6%; growth, % of control at 10 µM [28]: 112%; growth, % of control at 10 µM [29]: 91.6%; growth, % of control at 10 µM [30]: 82.7%; growth, % of control at 10 µM [31]: 98.7%; growth, % of control at 10 µM [32]: 108%; growth, % of control at 10 µM [33]: 104%
